Laboratory results published in paper PMC11855827, “High-Throughput Screening of Five Compound Libraries for Anthelmintic Activity and Toxicity Leads to the Discovery of Two Flavonoid Compounds” (International Journal of Molecular Sciences, 2025).

Tested on: C. elegans
Conditions: Table S2, C. elegans SS assay, 110 μM, averages of 4 data points

| Compound | Percentage of motility inhibition 0 h [%] | Percentage of motility inhibition 24 h [%] |
| --- | --- | --- |
| CC(C)(O)CCc1c(O)cc(O)c2c(=O)c(O)c(-c3ccc(O)cc3)oc12 [Noricaritin] | 42 | 5 |
| COc1cc2c(cc1O)C[C@@H]1NCCc3cc(OC)c(O)c-2c31 [Norisoboldine] | 0 | 0 |
| OC1C[C@H]2CC[C@@H](C1)N2 (stereo partly drawn) [Nortropine] | 12 | 11 |
| CC(C)=CCC[C@](C)(O[C@@H]1O[C@H](CO[C@@H]2O[C@H](CO)[C@@H](O)[C@H](O)[C@H]2O)[C@@H](O)[C@H](O)[C@H]1O)[C@H]1CC[C@]2(C)[C@@H]1[C@H](O)C[C@@H]1[C@@]3(C)CC[C@H](O[C@@H]4O[C@H](CO)[C@@H](O)[C@H](O)[C@H]4O[C@@H]4O[C@H](CO)[C@@H](O)[C@H](O)[C@H]4O[C@@H]4OC[C@@H](O)[C@H](O)[C@H]4O)C(C)(C)[C@@H]3CC[C@]12C [Notoginsenoside Fa] | 7 | 33 |
| CC(C)=CCC[C@](C)(O[C@@H]1O[C@H](CO[C@@H]2OC[C@@H](O)[C@H](O)[C@H]2O)[C@@H](O)[C@H](O)[C@H]1O)[C@H]1CC[C@]2(C)[C@@H]1[C@H](O)C[C@@H]1[C@@]3(C)CC[C@H](O[C@@H]4O[C@H](CO)[C@@H](O)[C@H](O)[C@H]4O[C@@H]4O[C@H](CO)[C@@H](O)[C@H](O)[C@H]4O[C@@H]4OC[C@@H](O)[C@H](O)[C@H]4O)C(C)(C)[C@@H]3CC[C@]12C [Notoginsenoside Fc] | 0 | 0 |
| CC(C)=CCC[C@@](C)(O)[C@H]1CC[C@]2(C)[C@@H]1[C@H](O)C[C@@H]1[C@@]3(C)CC[C@H](O[C@@H]4O[C@H](CO)[C@@H](O)[C@H](O)[C@H]4O[C@@H]4O[C@H](CO)[C@@H](O)[C@H](O)[C@H]4O[C@@H]4OC[C@@H](O)[C@H](O)[C@H]4O)C(C)(C)[C@@H]3CC[C@]12C [Notoginsenoside Ft1] | 14 | 3 |
| CC(C)=CCC[C@](C)(O[C@@H]1O[C@H](CO)[C@@H](O)[C@H](O)[C@H]1O)[C@H]1CC[C@]2(C)[C@@H]1[C@H](O)C[C@@H]1[C@@]3(C)CC[C@H](O)C(C)(C)[C@@H]3[C@@H](O[C@@H]3O[C@H](CO)[C@@H](O)[C@H](O)[C@H]3O[C@@H]3OC[C@@H](O)[C@H](O)[C@H]3O)C[C@]12C [Notoginsenoside R1] | 5 | 26 |
| CC(C)=CCC[C@](C)(O)[C@H]1CC[C@]2(C)[C@@H]1[C@H](O)C[C@@H]1[C@@]3(C)CC[C@H](O)C(C)(C)[C@@H]3[C@@H](O[C@@H]3O[C@H](CO)[C@@H](O)[C@H](O)[C@H]3O[C@@H]3OC[C@@H](O)[C@H](O)[C@H]3O)C[C@]12C [Notoginsenoside R2] | 19 | 9 |
| CO[C@@H]1[C@@H](OC(N)=O)[C@@H](O)[C@H](Oc2ccc3c([O-])c(NC(=O)c4ccc(O)c(CC=C(C)C)c4)c(=O)oc3c2C)OC1(C)C.[Na+] [Novobiocin (Sodium)] | 25 | 1 |
| CO[C@@H]1[C@@H](OC(N)=O)[C@@H](O)[C@H](Oc2ccc3c([O-])c(NC(=O)c4ccc(O)c(CC=C(C)C)c4)c(=O)oc3c2C)OC1(C)C.[Na+] [Novobiocin (sodium)] | 6 | 6 |
| Cn1cc(C(N)=O)ccc1=O [Nudifloramide] | 0 | 0 |
| CC(=O)NCCc1c[nH]c2ccc(O)cc12 [N‐Acetyl‐5‐hydroxytryptamine] | 0 | 0 |
| O=C(N[C@@H](c1ccccc1)[C@@H](O)C(=O)O)c1ccccc1 [N‐Benzoyl‐(2R,3S)‐3‐phenylisoserine] | 54 | 29 |
| CCCCC/C=C\C/C=C\CCCCCCCC(=O)NCc1ccccc1 [N‐Benzyllinoleamide] | 0 | 0 |
| CC/C=C\C/C=C\C/C=C\CCCCCCCC(=O)NCc1ccccc1 [N‐Benzyllinolenamide] | 2 | 0 |
| CCCCCCCCCCCCCCCCCC(=O)NCc1ccccc1 [N‐Benzyloctadecanamide] | 35 | 17 |
| CCCCCCCCCCCCCCCC(=O)NCc1ccccc1 [N‐Benzylpalmitamide] | 0 | 20 |
| COc1ccc(CCNC(=O)/C=C/c2ccc(O)c(O)c2)cc1 [N‐Caffeoyl O‐methyltyramine] | 0 | 0 |
| COc1cc[nH]c(=O)c1C#N [N‐Demethylricinine] | 0 | 7 |
| COc1ccc2c3c1O[C@H]1C[C@@H](O)C=C[C@@]31CCNC2 [N‐Desmethyl Galanthamine] | 0 | 0 |

| Compound | Percentage of motility inhibition 0 h [%] | Percentage of motility inhibition 24 h [%] |
| --- | --- | --- |
| COc1cc(/C=C/C(=O)NCC(O)c2ccc(O)cc2)ccc1O (stereo not drawn) [N‐Feruloyloctopamine] | 14 | 0 |
| COc1cc(/C=C/C(=O)NCCc2c[nH]c3ccc(O)cc23)ccc1O [N‐Feruloylserotonin] | 11 | 18 |
| O=CN1C[C@@H]2C[C@H](C1)c1cccc(=O)n1C2 [N‐Formylcytisine] | 0 | 0 |
| CN1C[C@@H]2C[C@H](C1)c1cccc(=O)n1C2 [N‐Methylcytisine] | 0 | 0 |
| Cn1c(=O)c2c(c3ccccc31)OC(C)(C)C=C2 [N‐Methylflindersine] | 0 | 1 |
| CN1CC(=O)NC1=O [N‐Methylhydantoin] | 13 | 16 |
| COc1cc2c3c(c1OC)-c1ccccc1C[C@H]3[N+](C)(C)CC2 [N‐Methylnuciferine] | 0 | 0 |
| COc1cc2c3c(c1OC)-c1ccccc1C[C@H]3NCC2 [N‐Nornuciferine] | 13 | 0 |
| COc1cc(/C=C/C(=O)NCCc2ccc(O)cc2)ccc1O [N‐trans‐Feruloyltyramine] | 5 | 16 |
| O=C(/C=C/c1ccc(O)c(O)c1)c1ccc(O)c(O)c1O [Okanin] | 9 | 31 |
| CC1(C)CC[C@]2(C(=O)O[C@@H]3O[C@H](CO)[C@@H](O)[C@H](O)[C@H]3O)CC[C@]3(C)C(=CC[C@@H]4[C@@]5(C)CC[C@H](O)C(C)(C)[C@@H]5CC[C@]43C)[C@@H]2C1 [Oleanolic acid 28-O-β-D-glucopyranoside] | 33 | 34 |
| COC(=O)C1=COC(O[C@@H]2O[C@H](CO)[C@@H](O)[C@H](O)[C@H]2O)/C(=C/C(=O)O)C1CC(=O)OCCc1ccc(O)c(O)c1 (stereo partly drawn) [Oleuropeinic acid] | 0 | 8 |
| O=C([O-])c1cc(/N=N/c2ccc(O)c(C(=O)[O-])c2)ccc1O.[Na+].[Na+] [Olsalazine (Disodium)] | 6 | 12 |
| COc1ccc(/C=C/C(=O)O[C@@H]2[C@H](O[C@@H]3O[C@@H](C)[C@H](O)[C@@H](O)[C@H]3O)[C@@H](O[C@@H]3O[C@@H](C)[C@H](O[C@@H]4OC[C@@H](O[C@@H]5O[C@H](CO)[C@H](O)[C@H](O)[C@H]5O)[C@H](O)[C@H]4O)[C@@H](O)[C@H]3O)[C@H](OC(=O)[C@]34CCC(C)(C)C[C@H]3C3=CC[C@@H]5[C@@]6(C)C[C@H](O)[C@H](O[C@@H]7O[C@H](CO)[C@@H](O)[C@H](O)[C@H]7O)[C@@](C)(C(=O)O)[C@@H]6CC[C@@]5(C)[C@]3(CO)CC4)O[C@@H]2C)cc1 [Onjisaponin B] | 30 | 33 |
| COc1cc(/C=C/C(=O)O[C@@H]2[C@H](O[C@@H]3O[C@@H](C)[C@H](O)[C@@H](O)[C@H]3O)[C@@H](O[C@@H]3O[C@@H](C)[C@H](O[C@@H]4OC[C@@H](O)[C@H](O)[C@H]4O)[C@@H](O)[C@H]3O)[C@H](OC(=O)[C@]34CCC(C)(C)C[C@H]3C3=CC[C@@H]5[C@@]6(C)C[C@H](O)[C@H](O[C@@H]7O[C@H](CO)[C@@H](O)[C@H](O)[C@H]7O)[C@@](C)(C(=O)O)[C@@H]6CC[C@@]5(C)[C@]3(CO)CC4)O[C@@H]2C)cc(OC)c1OC [Onjisaponin Z] | 4 | 21 |
| CN[C@H](CC(C)C)C(=O)N[C@H]1C(=O)N[C@@H](CC(N)=O)C(=O)N[C@H]2C(=O)N[C@H]3C(=O)N[C@H](C(=O)N[C@H](C(=O)O)c4cc(O)cc(O)c4-c4cc3ccc4O)[C@H](O[C@H]3C[C@](C)(N)[C@@H](O)[C@H](C)O3)c3ccc(c(Cl)c3)Oc3cc2cc(c3O[C@@H]2O[C@H](CO)[C@@H](O)[C@H](O)[C@H]2O[C@H]2C[C@](C)(NCc3ccc(-c4ccc(Cl)cc4)cc3)[C@@H](O)[C@H](C)O2)Oc2ccc(cc2Cl)[C@H]1O.O=P(O)(O)O.O=P(O)(O)O [Oritavancin (diphosphate)] | 34 | 8 |
| Cc1ncc([N+](=O)[O-])n1CC(O)CCl (stereo not drawn) [Ornidazole (Levo‐)] | 27 | 23 |
| O=c1cc(-c2ccccc2)oc2cc(O[C@@H]3O[C@H](CO)[C@@H](O)[C@H](O)[C@H]3O)c(O)c(O)c12 [Oroxin A] | 0 | 1 |
| O=c1cc(-c2ccccc2)oc2cc(O[C@@H]3O[C@H](CO[C@@H]4O[C@H](CO)[C@@H](O)[C@H](O)[C@H]4O)[C@@H](O)[C@H](O)[C@H]3O)c(O)c(O)c12 [Oroxin B] | 0 | 0 |
